Experimental findings from article PMC9637222, “Autoinducer-2 and bile salts induce c-di-GMP synthesis to repress the T3SS via a T3SS chaperone” (Nature Communications, 2022) are described below.

Where “and” joins values, the source holds several entries; their conditions need not be identical. Equal entries are not always repeated.

The target of experiment [1] is T1, YeaJ-LBD (Salmonella enterica subsp. enterica serovar Typhimurium, UniProt Q8ZPW4).
T1 sequence (Q8ZPW4 30-304): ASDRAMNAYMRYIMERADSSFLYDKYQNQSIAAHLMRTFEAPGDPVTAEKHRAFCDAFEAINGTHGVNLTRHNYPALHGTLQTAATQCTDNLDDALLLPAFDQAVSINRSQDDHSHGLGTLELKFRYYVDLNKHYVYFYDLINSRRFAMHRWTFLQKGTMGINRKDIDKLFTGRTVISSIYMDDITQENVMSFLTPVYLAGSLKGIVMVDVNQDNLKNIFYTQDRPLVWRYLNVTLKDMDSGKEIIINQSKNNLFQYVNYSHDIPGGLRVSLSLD
The experiment is described as follows: ITC: DPD/AI-2 binding to YeaJ-LBD. Also noted: species or system S. Typhimurium. The procedure: (§1) ITC measurements were carried out at 20 °C with a Nano ITC Standard Volume isothermal calorimeter (TA Instruments, New Castle, DE) controlled by the ITCRun software. The N-terminal His6 tags of all purified proteins were removed before ITC analysis. For titrations with DPD/AI-2 (Omm Scientific), the tag-free proteins were dialyzed against a Tris buffer (25 mM Tris-HCl, 150 mM NaCl, pH 7.5) and diluted to 70 μM, while DPD/AI-2 was diluted with the same buffer to 700 μM. […] After being degassed, 1 ml of the protein and 250 μl of the ligand solution were added to the sample cell and the syringe, respectively. There were 25 injections per experiment and the stirring speed was 200 rpm. In control experiments, the ligand solution was titrated into the buffer in the sample cell to obtain the heat of dilution. Microcalorimetric data were corrected by subtracting the heats of dilution and fit to the independent binding site model using the NanoAnalyze software.
For orientation: In ITC the heat of successive injections is recorded.

Experiment [2] addresses YeaJ-LBDY210A (Salmonella enterica subsp. enterica serovar Typhimurium, UniProt Q8ZPW4, Y210A). Put plainly: ITC: DPD/AI-2 binding to YeaJ-LBD Y210A mutant. More on the design: species or system S. Typhimurium. As to conditions: individual experiments, source data Fig. 2d. The procedure: as §1
The target in experiment [3] is YeaJ-LBDD239A (Salmonella enterica subsp. enterica serovar Typhimurium, UniProt Q8ZPW4, D239A). Put plainly: ITC: DPD/AI-2 binding to YeaJ-LBD D239A mutant. Also noted: species or system S. Typhimurium. As to conditions: head prints YeaJ-LBDY239A, individual experiments, source data Fig. 2d. How it is done:
as §1

Experiment [4] concerns the target T2, WP_000766134-LBD (Escherichia coli O157:H7, UniProt A0A0H3JEN8).
T2 sequence (A0A0H3JEN8 31-304): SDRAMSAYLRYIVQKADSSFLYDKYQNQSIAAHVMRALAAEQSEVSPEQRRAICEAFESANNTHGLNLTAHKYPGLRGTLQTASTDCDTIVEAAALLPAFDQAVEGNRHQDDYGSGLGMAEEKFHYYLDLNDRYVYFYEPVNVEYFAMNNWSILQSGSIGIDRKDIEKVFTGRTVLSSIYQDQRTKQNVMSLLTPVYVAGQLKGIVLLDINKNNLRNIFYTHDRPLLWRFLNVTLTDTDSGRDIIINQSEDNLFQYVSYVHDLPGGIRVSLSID
The experiment is described as follows: ITC: DPD/AI-2 binding to GAPES1 domain of the YeaJ homolog from EHEC O157:H7.

Experiment [5] addresses KMK13526-LBD (Pluralibacter gergoviae, UniProt A0A0J5L7D7). Put plainly: ITC: DPD/AI-2 binding to KMK13526-LBD. As to conditions: ITC binding stoichiometry n, individual replicates, Supplementary Figure 7b.
The target in experiment [6] is WP_034494714-LBD (Buttiauxella agrestis, UniProt A0A085GF42). Put plainly: ITC: DPD/AI-2 binding to WP_034494714-LBD. The conditions noted are these: individual replicates, Supplementary Figure 7c.
Sequence of WP_034494714-LBD (A0A085GF42 27-302): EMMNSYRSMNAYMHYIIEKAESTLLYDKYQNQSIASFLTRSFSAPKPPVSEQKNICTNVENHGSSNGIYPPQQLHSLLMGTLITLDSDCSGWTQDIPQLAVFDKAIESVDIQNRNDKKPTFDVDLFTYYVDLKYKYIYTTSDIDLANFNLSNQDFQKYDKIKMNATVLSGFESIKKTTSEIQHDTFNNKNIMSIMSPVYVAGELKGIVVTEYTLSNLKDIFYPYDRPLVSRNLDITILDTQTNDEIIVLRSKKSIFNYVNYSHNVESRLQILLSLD
Experiment [7] concerns the target KMK13526-LBD (H216Y/Q245D) (Pluralibacter gergoviae, UniProt A0A0J5L7D7, H216Y/Q245D). The conditions noted are these: ITC binding stoichiometry n, individual replicates, Supplementary Figure 7d.
The subject of experiment [8] is YeaJ. Put plainly: In vitro DGC activity assay of YeaJ (membrane fractions, HPLC of c-di-GMP). As to conditions: 100 μM GTP; for Concentration of c-di-GMP: 30 °C. The class given is biochemical, S. Typhimurium.
Experiment [9] deals with S. Typhimurium. The experiment is described as follows: Cellular c-di-GMP quantification by LC-MS/MS. The class given is cell-based. The conditions noted are these: for Change of intracellular c-di-GMP concentration (in words): exogenous DPD/AI-2 (10 μM, 30 min). How it is done:
For stimulation with AI-2, the DPD/AI-2 solution was added to the shaking culture at OD600 of 1.3, followed by another 30 min of incubation at 37 °C. For induction by porcine bile salts and individual bile components (Sigma-Aldrich), substances were added to the static culture at OD600 of 1.1, followed by another 30 min of incubation at 37 °C. About 15 ml of culture was centrifuged and the cells were washed twice with phosphate-buffered saline (PBS, pH 7.0). The cell pellets were resuspended in 500 μl of extraction solution (acetonitrile/methanol/water, 40:40:20, v/v/v) and cooled on ice for 15 min. The samples were boiled for 10 min at 95 °C and then cooled again on ice for 15 min. After centrifugation at 20,000×g and 4 °C for 10 min, supernatants were transferred to new tubes on ice. The remaining pellets were used for two more extraction steps with 500 μl of the extraction solution without heating. Pooled supernatants for each sample were lyophilized, and pellets were resolubilized in 200 μl of distilled water. C-di-GMP concentrations were then measured by LC-MS/MS[63] (AB SCIEX QTRAP 6500+ LC-MS/MS System). Intracellular levels of c-di-GMP were normalized to the number of bacterial cells for each sample.

The target in experiment [10] is SipB. Also noted: species or system S. Typhimurium. The conditions noted are these: ITC, individual replicates, Supplementary Figure 19a; read-out: Kd, SicA binding to SipB. How it is done:
as §1
(§2) Supplementary Fig. 19 Isotherms representing binding of SicA and its variants with InvF, SipB and SipC as measured by ITC
(§3) ITC data and plots of injected heat for 25 automatic injections of 100 μM SicA (a, d, f),SicAK27A (b) or SicAN70A (c, e, g) into the sample cellcontaining 10 μM SipB (a-c), InvF (d, e), or SipC (f,g) are shown inthe upper and lower plots, respectively. […]

Experiment [11] addresses T3, InvF (Salmonella typhimurium, UniProt P69343).
T3 sequence (P69343 1-216): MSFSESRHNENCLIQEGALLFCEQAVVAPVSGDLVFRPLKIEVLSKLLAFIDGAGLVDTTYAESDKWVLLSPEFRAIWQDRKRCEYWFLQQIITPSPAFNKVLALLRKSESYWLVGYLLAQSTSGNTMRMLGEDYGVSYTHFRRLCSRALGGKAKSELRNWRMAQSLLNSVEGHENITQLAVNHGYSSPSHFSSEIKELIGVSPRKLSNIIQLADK
The conditions noted are these: individual replicates, Supplementary Figure 19d. How it is done: as §1, §2, §3

Experiment [12] concerns the target T4, SipC (Salmonella typhimurium, UniProt E1WAC8).
T4 construct: His6 (N, cleaved yes); made in house; host or cells: E. coli BL21(DE3) (pET28a-sipC)
The class given is binding, S. Typhimurium. The conditions noted are these: individual replicates, Supplementary Figure 19f. The procedure: as §1, §2, §3

Where [13] appears, read: individual experiments, source data Fig. 1d.

Sequence of KMK13526-LBD (H216Y/Q245D) (A0A0J5L7D7 31-310 H216Y/Q245D): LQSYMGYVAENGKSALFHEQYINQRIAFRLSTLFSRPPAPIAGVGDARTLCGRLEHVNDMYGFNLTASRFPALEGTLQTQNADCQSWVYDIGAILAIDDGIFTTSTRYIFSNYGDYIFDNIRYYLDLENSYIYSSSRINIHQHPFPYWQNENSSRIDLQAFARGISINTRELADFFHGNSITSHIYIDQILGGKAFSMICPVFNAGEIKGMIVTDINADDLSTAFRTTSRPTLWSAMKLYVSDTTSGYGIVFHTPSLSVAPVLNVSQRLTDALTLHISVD
Sequence of KMK13526-LBD (A0A0J5L7D7 31-310): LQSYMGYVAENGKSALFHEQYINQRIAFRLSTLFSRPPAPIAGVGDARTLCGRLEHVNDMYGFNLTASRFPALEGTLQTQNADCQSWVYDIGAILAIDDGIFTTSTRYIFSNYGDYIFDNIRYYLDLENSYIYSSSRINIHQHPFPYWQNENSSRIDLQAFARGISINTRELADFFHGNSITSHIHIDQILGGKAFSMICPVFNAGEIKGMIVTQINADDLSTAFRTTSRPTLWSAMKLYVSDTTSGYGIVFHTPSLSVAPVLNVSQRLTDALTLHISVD
T4 sequence (E1WAC8 whole entry): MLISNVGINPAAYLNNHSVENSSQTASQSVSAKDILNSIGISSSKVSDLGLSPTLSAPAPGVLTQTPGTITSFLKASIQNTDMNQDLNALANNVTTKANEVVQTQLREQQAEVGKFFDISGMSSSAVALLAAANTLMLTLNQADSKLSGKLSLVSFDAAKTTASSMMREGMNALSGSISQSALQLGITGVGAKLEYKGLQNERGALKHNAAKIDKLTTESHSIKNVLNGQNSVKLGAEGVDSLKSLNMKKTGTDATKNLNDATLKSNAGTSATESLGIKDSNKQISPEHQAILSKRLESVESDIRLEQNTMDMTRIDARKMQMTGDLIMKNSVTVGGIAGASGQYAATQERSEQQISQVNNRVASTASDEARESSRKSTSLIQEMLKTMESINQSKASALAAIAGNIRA
T4 sequence (P69066 whole entry partner): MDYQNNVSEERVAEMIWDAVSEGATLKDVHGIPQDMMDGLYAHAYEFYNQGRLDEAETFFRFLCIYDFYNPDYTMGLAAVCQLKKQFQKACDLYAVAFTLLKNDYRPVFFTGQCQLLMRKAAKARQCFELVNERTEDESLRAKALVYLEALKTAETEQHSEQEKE

As to `CC(=O)C(=O)[C@@H](O)CO` [DPD/AI-2, autoinducer-2], the Kd in experiment [1] (20 °C, mean ± s.d. of three independent experiments) is 150 ± 20 nM; in experiment [1] (setting [13]), 160 nM and 130 nM; in experiment [2], 23 µM and 29 µM and 26 µM; in experiment [3], 17 µM; in [4] (read-out: Kd, DPD/AI-2 binding to WP_000766134-LBD, ITC, individual replicates, Supplementary Figure 7a) it was 120 nM and 170 nM; in experiment [6] (read-out: Kd, DPD/AI-2 binding to WP_034494714-LBD, ITC), 32 µM and 39 µM and 38 µM. Besides, the “n (complex stoichiometry)” value in experiment [1] (setting [13]) was 1.20 and 1.19 and 1.04; in experiment [2] it was 1.02 and 0.93 and 1.04; in [3], 0.97 and 0.93. Moreover, the “n, DPD/AI-2 binding to WP_000766134-LBD” value in [4] (ITC binding stoichiometry n, individual replicates, Supplementary Figure 7a) was 1.18 and 1.17 and 1.13. Besides, the “AI-2 binding affinity (in words)” value in experiment [4] (ITC, GAPES1 domain of the YeaJ homolog from EHEC O157:H7) is recorded as “high affinity”. In addition, the “n, DPD/AI-2 binding to KMK13526-LBD” value in [5] was 0.93 and 1.03 and 0.86. The “n, DPD/AI-2 binding to WP_034494714-LBD” value in experiment [6] (ITC binding stoichiometry n) is 0.94 and 0.97 and 0.98. For the same molecule, the “n, DPD/AI-2 binding to KMK13526-LBDH216Y/Q245D” value in [7] is 1.11 and 1.03 and 1.17. In addition, the “Concentration of c-di-GMP” value in experiment [8] (100 μM DPD/AI-2, 30 min) is 19.68 µM and 20.02 µM and 21.70 µM; in experiment [8] (100 μM DPD/AI-2, 60 min), 32.50 µM and 32.49 µM and 31.69 µM; in experiment [8] (200 μM DPD/AI-2, 30 min), 39.23 µM and 36.03 µM and 36.70 µM; in [8] (200 μM DPD/AI-2, 60 min), 44.10 µM and 43.39 µM and 41.58 µM. The “Effect on DGC activity of YeaJ in synthesizing c-di-GMP (in words)” value in experiment [8] (in vitro, membrane fractions) was “stimulates the activity of YeaJ”. The entries for the “Change of intracellular c-di-GMP concentration (in words)” value in experiment [9] (ΔluxS mutant) and in experiment [9] (ΔyeaJΔluxS mutant) were “significant increase” and “did not increase”, respectively. Besides, the “c-di-GMP (fmol/107 cells)” value in experiment [9] (ΔluxS, 10 μM DPD/AI-2 for 30 min, LB, OD600 1.3, biological replicates) is 31.06 fmol/107 cells and 29.99 fmol/107 cells and 27.56 fmol/107 cells.
As for SicA, the Kd is 500 nM and 560 nM and 540 nM in [10]; 470 nM and 420 nM and 490 nM in [11] (read-out: Kd, SicA binding to InvF, ITC); 670 nM and 550 nM in experiment [12] (ITC, read-out: Kd, SicA binding to SipC). The “n, SicA binding to InvF” value in experiment [11] (ITC binding stoichiometry n) was 1.00 and 1.13 and 1.16. Besides, in experiment [12] (ITC binding stoichiometry n), the “n, SicA binding to SipC” value is 1.04 and 1.18 and 1.02.
